US20150133456A1, “FLUOROERGOLINE DERIVATIVES AND USES THEREOF” (MAP PHARMACEUTICALS, INC., priority 2012, published 2015)

Columns and labels:
[1] = Metabolism in human liver microsomes; conditions: 1 μM, 0.2 mg protein/mL
Description: Metabolism of dihydroergotamine (DHE) and 2-CF3 DHE was evaluated in human liver microsomes. DHE mesylate and 2-CF3 DHE mesylate (1 μM each) were incubated separately with human liver microsomes (0.2 mg protein/mL) in triplicate at 37° C. in 0.2 mL (final volume) incubation buffer (50 mM potassium phosphate buffer, pH 7.4, 3 mM MgCl2 and 1 mM EDTA, pH7.4) with or without cofactor, NADPH-generating system. The NADPH-generating system consisted of 1 mM NADP, pH 7.4, 5 mM glucose-6-phosphate, pH 7.4 and 1 unit/mL glucose-6-phosphate dehydrogenase. DHE was added to the incubation mixtures in water. 2-CF3-DHE was added to incubation mixtures in 50:50 (v:v) acetonitrile:water. A low level of acetonitrile in the incubation was maintained to avoid any solvent effects on enzyme activity (typically at 0.5% or lower). Reactions were initiated by the addition of the NADPH-generating system and were terminated at 0, 15, 30 and 60 minutes after initiation by the addition of […], of stop reagent (acetonitrile) containing two internal standards (4′-hydroxydiclofenac-d4 and 1′-hydroxymidazolam-d4, 200 and 50 ng/mL in the final stopped incubation, respectively). The samples were then centrifuged and the supernatant fractions were analyzed by LC/MS/MS to quantify the formation of 8′-OH-DHE (metabolite) in the DHE samples and DHE and 8′-OH-DHE in the 2-CF3-DHE samples.

[2] = test system: Glutamate (mGlu3/mGlu5/mGlu7); experiment: Glutamate receptor screen (Aequorin mGlu3/mGlu5, cAMP mGlu7); format: cell-based, human
Description: For mGlu3 and mGlu5, CHO-K1 cells coexpressing mitochondrial apoaequorin and recombinant human receptor grown to mid-log phase in culture media without antibiotics and supplemented with doxycycline, (final concentration of 600 ng doxycycline/mL), was detached with PBS-EDTA, centrifuged and resuspended in assay buffer (HBSS, 2.1 mM CaCl2, 3 μg/mL GPT (Glutamate-Pyruvate transaminase), 4 mM MEM Sodium Pyruvate, 0.1% BSA protease free) at a concentration of 1×10^6 cells/mL. Cells were incubated at room temperature for at least 4 hours with coelenterazine h. Reference agonist/antagonist was tested to evaluate the performance of the assay and to determine EC50/IC50. […]
Cells expressing the human recombinant receptor of interest were grown in media without antibiotic and detached by gentle flushing with PBS-EDTA (5 mM EDTA), recovered by centrifugation and resuspended in assay buffer (KRH: 5 mM KCl, 1.25 mM MgSO4, 124 mM NaCl, 25 mM HEPES, 13.3 mM glucose, 1.25 mM KH2PO4, 1.45 mM CaCl2, 0.5 g/L BSA). […] Lysis buffer was added and after a 1 hour incubation, cAMP concentrations was determined according to the manufacturer specification with the HTRF kit. […] Lysis buffer was added and after a 1 hour incubation, cAMP concentrations were determined according to the manufacturer specification, with the HTRF kit.

α1D receptor = target: T1, α1D receptor (Homo sapiens, UniProt P25100); experiment: Competitive antagonist activity, adrenergic α1D; format: cell-based; conditions: read-out: IC50, α1D antagonism
T1 construct: expressed in transfected cells

human 5-HT2B receptor = target: T2, human 5-HT2B receptor (Homo sapiens, UniProt P41595); experiment: Aequorin assay, antagonist activity at 5-HT2B; format: cell-based
T2 construct: host or cells: CHO-K1 coexpressing mitochondrial apoaequorin
Description: Percentage inhibition values were determined for 2-CF3 dihydroergotamine on the 5-HT2B receptor.

D2 receptor = target: T3, D2 receptor (Homo sapiens, UniProt P14416); experiment: Agonist activity at the D2 receptor; format: cell-based; conditions: read-out: EC50, D2 receptor agonism
T3 construct: expressed in transfected cells
Description: The assay was performed analogously to the assay described in Example 4.

T2 sequence (P41595 whole entry): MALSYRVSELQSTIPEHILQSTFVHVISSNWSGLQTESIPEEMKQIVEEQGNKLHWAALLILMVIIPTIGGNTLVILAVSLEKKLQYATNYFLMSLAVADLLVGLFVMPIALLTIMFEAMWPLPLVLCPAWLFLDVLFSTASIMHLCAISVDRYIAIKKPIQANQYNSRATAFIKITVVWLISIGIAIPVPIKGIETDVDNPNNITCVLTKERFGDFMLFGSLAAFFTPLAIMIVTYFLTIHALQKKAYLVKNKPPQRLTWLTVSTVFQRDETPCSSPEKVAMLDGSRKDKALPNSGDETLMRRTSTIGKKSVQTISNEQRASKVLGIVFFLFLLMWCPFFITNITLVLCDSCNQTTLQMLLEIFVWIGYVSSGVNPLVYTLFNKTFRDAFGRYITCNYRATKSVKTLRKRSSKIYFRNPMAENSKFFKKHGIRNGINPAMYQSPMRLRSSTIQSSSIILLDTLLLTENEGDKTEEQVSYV
T3 sequence (P14416 whole entry): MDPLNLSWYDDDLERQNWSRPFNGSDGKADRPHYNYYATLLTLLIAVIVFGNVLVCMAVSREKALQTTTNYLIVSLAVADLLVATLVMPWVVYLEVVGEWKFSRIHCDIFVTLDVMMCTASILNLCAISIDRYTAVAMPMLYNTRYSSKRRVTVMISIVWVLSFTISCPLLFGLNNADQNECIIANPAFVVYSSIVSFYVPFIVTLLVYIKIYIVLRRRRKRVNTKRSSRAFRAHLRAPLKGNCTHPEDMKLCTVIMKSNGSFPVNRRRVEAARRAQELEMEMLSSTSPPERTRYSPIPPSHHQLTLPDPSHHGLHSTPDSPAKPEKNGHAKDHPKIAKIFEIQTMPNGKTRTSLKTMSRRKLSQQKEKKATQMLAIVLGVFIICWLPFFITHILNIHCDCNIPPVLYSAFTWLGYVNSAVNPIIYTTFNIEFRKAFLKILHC
T1 sequence (P25100 whole entry): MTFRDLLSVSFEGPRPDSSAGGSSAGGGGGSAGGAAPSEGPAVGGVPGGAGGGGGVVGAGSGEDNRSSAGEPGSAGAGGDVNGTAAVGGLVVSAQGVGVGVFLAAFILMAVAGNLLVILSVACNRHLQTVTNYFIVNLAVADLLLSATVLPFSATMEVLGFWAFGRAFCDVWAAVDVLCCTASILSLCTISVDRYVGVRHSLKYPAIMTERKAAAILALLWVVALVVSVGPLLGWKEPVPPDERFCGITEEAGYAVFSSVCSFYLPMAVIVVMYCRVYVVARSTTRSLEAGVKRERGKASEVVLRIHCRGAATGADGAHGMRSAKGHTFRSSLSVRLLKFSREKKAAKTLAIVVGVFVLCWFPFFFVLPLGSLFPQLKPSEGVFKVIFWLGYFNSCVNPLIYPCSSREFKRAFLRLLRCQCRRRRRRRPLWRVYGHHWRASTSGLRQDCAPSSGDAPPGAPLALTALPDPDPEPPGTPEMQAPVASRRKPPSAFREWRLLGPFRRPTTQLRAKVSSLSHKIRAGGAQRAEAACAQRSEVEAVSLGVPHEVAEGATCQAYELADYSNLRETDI

Q: Which “metabolism by human liver microsomes in the presence of NADPH” value ([1]; 0 to 60 minutes) does the source give for `CN1C[C@H](C(=O)N[C@]2(C)O[C@@]3(O)[C@@H]4CCCN4C(=O)[C@H](Cc4ccccc4)N3C2=O)CC2c3cccc4[nH]c(C(F)(F)F)c(c34)CC21` (stereo partly shown) [2-CF3-dihydroergotamine] here?
A: Its value is “extensively metabolized”.

Q: And the “intrinsic clearance, slower than that of DHE” value ([1]; with NADPH)?
A: The value was “about 85%”.

Q: What about the “Activity (Agonism: EC50; Antagonism: IC50)” value [2] of the same compound?
A: Its value is “Inactive”.

Q: What about the IC50 (α1D receptor) of the same compound?
A: Its IC50 is 40.2 nM.

Q: What about the “antagonism of the 5-HT2B receptor” value (human 5-HT2B receptor; FIG. 2) of the same compound?
A: Its value is “potent antagonism”.

Q: And the IC50 (human 5-HT2B receptor; reference agonist at its EC80, read-out: IC50, 5-HT2B antagonism)?
A: The IC50 was 204 nM.

Q: What about the EC50 (D2 receptor) of the same compound?
A: The EC50 was 218 nM.
